Assay results from US4210754A, “Morpholino containing benzamides” (Hoffmann-La Roche Inc., priority 1978, dated 1980).

Key:
[1] = toxicity (LD50) p.o. in mice; details: mouse, in vivo, po
Description: (§1) The MAO inhibiting activity of the compounds of formula I of the invention can be determined using standard methods. Thus, the compounds of formula I to be tested were administered p.o. to rats. One hour thereafter the animals were killed and the MAO inhibiting activity in the liver homogenates was measured according to the method described in Biochem. Pharmacol. 12 (1963) 1439-1441. The activity thus determined of representative compounds of the present invention and their toxicity can be seen from the ED50 values (μmol/kg.p.o. in rats) and LD50 values (mg/kg, p.o. in mice) listed in the Table which follows: […]

monoamine oxidase (MAO) = assay: MAO inhibiting activity in liver homogenates of rats after p.o. administration; type: in vivo; details: animals killed one hour after administration, MAO measured in liver homogenates, 60 min
Description: as §1

[2] = toxicity (LD50) p.o. in rats; details: rat, in vivo, po, after 10 days

O=C(NCCN1CCOCC1)c1ccc(I)cc1 [p-iodo-N-(2-morpholinoethyl)-benzamide]
LD50 [1]: 1250 to 2500 mg/kg | ED50 (MAO inhibiting activity) (monoamine oxidase (MAO)): 4 µmol/kg

O=C(NCCN1CCOCC1)c1ccc(Cl)cc1Cl [2,4-dichloro-N-(2-morpholinoethyl)-benzamide]
LD50 [1]: 1250 to 2500 mg/kg | ED50 (MAO inhibiting activity) (monoamine oxidase (MAO)): 13 µmol/kg

CC(C)(C)c1ccc(C(=O)NCCN2CCOCC2)cc1 [p-t-butyl-N-(2-morpholinoethyl)-benzamide]
LD50 [1]: 1250 to 2500 mg/kg | ED50 (MAO inhibiting activity) (monoamine oxidase (MAO)): 16 µmol/kg

O=C(NCCN1CCOCC1)c1ccc(F)cc1 [p-fluoro-N-(2-morpholinoethyl)-benzamide]
LD50 [1]: 1250 to 2500 mg/kg | ED50 (MAO inhibiting activity) (monoamine oxidase (MAO)): 11 µmol/kg

O=C(NCCN1CCOCC1)c1ccc(Br)cc1 [p-bromo-N-(2-morpholinoethyl)-benzamide]
LD50 [1]: 1250 to 2500 mg/kg | ED50 (MAO inhibiting activity) (monoamine oxidase (MAO)): 6 µmol/kg

O=C(NCCN1CCOCC1)c1ccc(Cl)cc1[N+](=O)[O-] [4-chloro-N-(2-morpholinoethyl)-2-nitrobenzamide]
ED50 (MAO inhibiting activity) (monoamine oxidase (MAO)): 2 µmol/kg

O=C(NCCN1CCOCC1)c1ccc(C(F)(F)F)cc1 [α,α,α-trifluoro-N-(2-morpholinoethyl)-p-toluamide]
LD50 [1]: 1000 to 2000 mg/kg | ED50 (MAO inhibiting activity) (monoamine oxidase (MAO)): 16 µmol/kg

O=C(NCCN1CCOCC1)c1ccc(Cl)cc1 [p-chloro-N-(2-morpholinoethyl)-benzamide]
LD50 at 240 h [2]: 707 ± 55 mg/kg | ED50 (MAO inhibiting activity) (monoamine oxidase (MAO)): 5 µmol/kg
